Experimental data taken from patent US20250345439A1, “CHONDROITIN SULFATE BIOGENIC POLYAMINE COMPLEX, PREPARATION METHOD THEREOF AND USE THEREOF” (priority 2022, published 2025).

Tested on: rat rheumatoid arthritis model
[1] = venous blood, day 14 after administration

## CN(Cc1cnc2nc(N)nc(N)c2n1)c1ccc(C(=O)N[C@@H](CCC(=O)O)C(=O)O)cc1 [MTX, methotrexate]
CSX of Example 2 200 mg/kg gavage daily, MTX 0.2 mg/kg gavage every other day
  degrees of swelling in the toes of rats: showed the desired effect of inhibiting toe swelling
CSX of Example 2, MTX positive control
  CT of ankle joint parts of rats: the degree of joint injury was more serious than that in the rats of the drug group (CSX)
CT
  bone surface (BS) of the ankle joint: decreased significantly
[1]
  absolute leukocyte count vs model group: no statistical difference
  absolute lymphocyte count vs model group: significantly decreased
  absolute neutrophil count vs model group: significantly decreased
